The values that follow come from patent EP1939270B1, “Demetallation of oil and hydrocarbon cuts and use of same” (TOTAL RAFFINAGE MARKETING, priority 2006, dated 2008).

Test [1] is described as follows: Demetallation of model mixture (DAO + NiETIO + OEPVO): catalysed oxidation, metal removal, residual vanadium by X-ray fluorescence. The conditions noted are these: by mass. An excerpt: (§1) Le procédé de démétallation selon l'invention a été testé sur un mélange modèle de fractions pétrolières lourdes, composé d'un produit pétrolier ne contenant pas de nickel ni de vanadium, auxquelles ont été ajoutées des porphyrines modèles de nickel et de vanadium (exemples 1 à 4, 6 et 7).
(§2) La fraction pétrolière utilisée dans les exemples (DAO) est une huile désasphaltée au solvant, issue d'un résidu sous vide du brut Safaniya d'Arabie Saoudite. Il s'agit donc d'un résidu sous vide dépourvu d'asphaltènes, et donc de pétroporphyrines, pauvre en nickel (<0,2 ppm) et en vanadium (<0,1 ppm).
(§3) Les porphyrines modèles utilisées sont l'étioporphyrine de nickel (NiETIO) et l'octaéthylporphyrine de vanadyle (OEPVO), qui sont disponibles commercialement. Leurs formules sont les suivantes : [drawing 5] […]
(§4) Les différentes fractions sont ensuite évaporées afin de recueillir la fraction pétrolière de 2,02 g (soit un bilan matière de 97 %) qui est ensuite analysée par spectrométrie à fluorescence X pour en déceler 31 ppm de nickel et 54 ppm de Vanadium. […]
(§5) Les différentes fractions sont ensuite évaporées afin de recueillir la fraction pétrolière avec un bilan matière de 97% (en masse) et des teneurs en Nickel et Vanadium analysées par spectrométrie à fluorescence X de moins de 10 ppm (en masse). […]

The nature of test [2]: Demetallation of model mixture (DAO + NiETIO + OEPVO): catalysed oxidation, metal removal, residual nickel by X-ray fluorescence. The conditions noted are these: by mass.
Excerpt: as §1, §2, §3, §4, §5

Turning to `Clc1cccc(Cl)c1-c1c2nc(c(-c3c(Cl)cccc3Cl)c3ccc([n-]3)c(-c3c(Cl)cccc3Cl)c3nc(c(-c4c(Cl)cccc4Cl)c4ccc1[n-]4)C=C3)C=C2.[Mn+2]` [Exemple 4, méso-tétra-(2,6-dichloro) phényl porphyrinede manganèse], in test [1], the “Après traitement V Taux d'élimination” value is listed as 96,1%. Further, the “Après traitement Ni Taux d'élimination” value in test [2] is listed as 93,8%.
